Test results published in the CheMixHub ionic liquid set.
Several values for one entry are separate records, joined by “and”; a condition that tells them apart may be missing. Equal values may be shown once.

Experiment: xn = mol fraction of the nth substance listed

CCCC[n+]1ccn(C)c1.[Br-] + N[C@@H](Cc1ccccc1)C(=O)O + O
viscosity [mPa·s], 101.3 kPa
Details	293.15 K	298.15 K	303.15 K	308.15 K	313.15 K
x2 = 0, x1 = 0.0007203	–	–	–	–	0.67
x2 = 0.0003641, x1 = 0.00072	1	0.97	0.88	0.77	0.68
x2 = 0.0003648, x1 = 0.001439	0.99	0.9	0.8	0.66	0.59
x2 = 0.0007259, x1 = 0.0007198	1.02	0.98	0.89	0.78	0.69
x2 = 0.0007309, x1 = 0.001438	1	0.91	0.81	0.68	0.6
x2 = 0.001089, x1 = 0.0007195	1.03	0.99	0.91	0.8	0.7
x2 = 0.001097, x1 = 0.001438	1.02	0.92	0.82	0.69	0.61
x2 = 0.00145, x1 = 0.0007192	1.04	1	0.92	0.81	0.72
x2 = 0.001463, x1 = 0.001437	1.03	0.93	0.83	0.7	0.63
x2 = 0.001814, x1 = 0.000719	1.05	1.02	0.93	0.82	0.73
x2 = 0.001827, x1 = 0.001437	1.04	0.95	0.85	0.71	0.64
x2 = 0.002174, x1 = 0.0007187	1.07	1.03	0.95	0.84	0.74
x2 = 0.002193, x1 = 0.001436	1.06	0.96	0.86	0.73	0.65
x2 = 0.002537, x1 = 0.0007185	1.08	1.04	0.96	0.85	0.76
x2 = 0.002556, x1 = 0.001436	1.07	0.97	0.87	0.74	0.67

CC(N)C(=O)[O-].CCCC[n+]1ccn(C)c1C + O
viscosity [mPa·s], 100 kPa
Details	x1 = 0.1003	x1 = 0.3009	x1 = 0.6987	x1 = 1
293.15 K	22.3	–	200	370
313.15 K	–	–	70	–
318.15 K	–	18.9	–	87

CCCCCCCCCC[N+](CC)(CC)CCCCCCCCCC.[Br-] + O
electrical conductivity [S/m]
Details	290.55 K	290.75 K	290.85 K	292.05 K	301.55 K	303.15 K	304.55 K	306.65 K	311.65 K
100 kPa, x1 = 1.08e-06	–	–	–	–	–	0.0029	–	–	–
101 kPa, x1 = 0.0004187	0.031	0.033	0.034	0.053	0.079	–	0.082	0.084	0.089

CCCC[NH3+].O=[N+]([O-])[O-] + O
Details	viscosity
278.15 K, 101.33 kPa, x2 = 0.435	46.7 mPa·s
283.15 K, 101.33 kPa, x2 = 0.435	37.92 mPa·s and 48.9 mPa·s
288.15 K, 101.33 kPa, x2 = 0.435	31.29 mPa·s and 40.44 mPa·s
293.15 K, 101.33 kPa, x2 = 0.435	26.16 mPa·s and 33.68 mPa·s
298 K, 101 kPa, x2 = 0	108.5 mPa·s
298 K, 101 kPa, x2 = 0.294	33.93 mPa·s
298 K, 101 kPa, x2 = 0.801	3.93 mPa·s
298 K, 101 kPa, x2 = 0.9	2.18 mPa·s
298.15 K, 101.33 kPa, x2 = 0.435	22.32 mPa·s and 28.34 mPa·s
303.15 K, 101.33 kPa, x2 = 0.435	18.92 mPa·s and 23.98 mPa·s
308.15 K, 101.33 kPa, x2 = 0.435	16.33 mPa·s and 20.7 mPa·s
313.15 K, 101.33 kPa, x2 = 0.435	14.22 mPa·s and 17.85 mPa·s
318.15 K, 101.33 kPa, x2 = 0.435	12.47 mPa·s and 16.84 mPa·s
323.15 K, 101.33 kPa, x2 = 0.435	11.02 mPa·s and 13.73 mPa·s
328.15 K, 101.33 kPa, x2 = 0.435	9.79 mPa·s and 12.73 mPa·s
333.15 K, 101.33 kPa, x2 = 0.435	8.76 mPa·s and 10.31 mPa·s
338.15 K, 101.33 kPa, x2 = 0.435	7.87 mPa·s and 9.34 mPa·s
